The text below walks through data of PubChem BioAssay AID328 (DTP/NCI, 2004).

This assay deals with BDF1 mice, P388 leukemia ip, median survival T/C. As to the kind of experiment: NCI In Vivo Anticancer Drug Screen. Data for tumor model P388 Leukemia (intraperitoneal) in B6D2F1 (BDF1) mice. Conditions: endpoint: median survival time, higher = longer survival. Put shortly:
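Steps: implant the tumour, treat one group with compound and another with vehicle, record survival, then divide treated by control.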

Setting [1] is: dose: 12.5 mg/kg/injection, schedule: Q01DX009 (ip), vehicle: saline with Tween-80.
The mark [2] stands for this setting: dose: 25.0 mg/kg/injection, schedule: Q01DX009 (ip), vehicle: saline with Tween-80.
[3] abbreviates: dose: 50.0 mg/kg/injection, schedule: Q04DX003 (ip), vehicle: saline with Tween-80.
Where [4] appears, read: dose: 100.0 mg/kg/injection, schedule: Q04DX003 (ip), vehicle: saline with Tween-80.
Where [5] appears, read: dose: 200.0 mg/kg/injection, schedule: Q04DX003 (ip), vehicle: saline with Tween-80.
Where [6] appears, read: dose: 400.0 mg/kg/injection, schedule: Q04DX003 (ip), vehicle: saline.
Setting [7] is: dose: 50.0 mg/kg/injection, schedule: Q01DX009 (ip), vehicle: saline with Tween-80.
[8] abbreviates: dose: 200.0 mg/kg/injection, schedule: Q01DX009 (ip), vehicle: saline with Tween-80.
Setting [9] is: dose: 100.0 mg/kg/injection, schedule: Q01DX009 (ip), vehicle: saline with Tween-80.
Where [10] appears, read: dose: 400.0 mg/kg/injection, schedule: Q01DX009 (ip), vehicle: saline with Tween-80.
Where [11] appears, read: dose: 400.0 mg/kg/injection, schedule: Q04DX003 (ip), vehicle: saline with Tween-80.
[12] abbreviates: dose: 50.0 mg/kg/injection, schedule: Q01DX009 (ip), vehicle: Klucel (hydroxypropylcellulose) (HPC).
Where [13] appears, read: dose: 100.0 mg/kg/injection, schedule: Q01DX009 (ip), vehicle: Klucel (hydroxypropylcellulose) (HPC).
[14] abbreviates: dose: 25.0 mg/kg/injection, schedule: Q01DX009 (ip), vehicle: Klucel (hydroxypropylcellulose) (HPC).

Several values for one entry are separate records, joined by “and”; a condition that tells them apart may be missing. Equal values may be shown once. Inconclusive results and toxic doses are left out.

Turning to `Cc1ccc2c(Nc3ccc(NS(C)(=O)=O)cc3)c3ccccc3nc2c1C`, the T/C (dose: 1.78 mg/kg/injection, schedule: Q01DX009 (ip), vehicle: saline with Tween-80) is 156 % of control; the T/C (dose: 4.0 mg/kg/injection, schedule: Q01DX009 (ip), vehicle: saline with Tween-80) is 167 % of control; the T/C (dose: 5.56 mg/kg/injection, schedule: Q01DX009 (ip), vehicle: saline with Tween-80) is 196 % of control; the T/C (dose: 6.0 mg/kg/injection, schedule: Q01DX009 (ip), vehicle: saline with Tween-80) was 187 % of control; the T/C (dose: 6.25 mg/kg/injection, schedule: Q01DX009 (ip), vehicle: saline with Tween-80) was 185 % of control; the T/C (dose: 8.33 mg/kg/injection, schedule: Q01DX009 (ip), vehicle: saline with Tween-80) was 186 % of control. Further, the T/C (dose: 8.8 mg/kg/injection, schedule: Q04DX003 (ip), vehicle: saline with Tween-80) was 118 % of control; the T/C under setting [1] was 233 % of control and 247 % of control; the T/C (dose: 13.2 mg/kg/injection, schedule: Q04DX003 (ip), vehicle: saline with Tween-80) was 154 % of control; the T/C (dose: 18.7 mg/kg/injection, schedule: Q01DX009 (ip), vehicle: saline with Tween-80) was 288 % of control; the T/C (dose: 20.0 mg/kg/injection, schedule: Q01DX009 (ip), vehicle: other) was 219 % of control; the T/C (dose: 20.0 mg/kg/injection, schedule: Q04DX003 (ip), vehicle: saline with Tween-80) is 168 % of control. Besides, the T/C (dose: 22.0 mg/kg/injection, schedule: Q04DX003 (ip), vehicle: saline with Tween-80) is 186 % of control; the T/C under setting [2] is 114 % of control; the T/C (dose: 30.0 mg/kg/injection, schedule: Q04DX003 (ip), vehicle: saline with Tween-80) is 177 % of control; the T/C (dose: 33.0 mg/kg/injection, schedule: Q04DX003 (ip), vehicle: saline with Tween-80) is 227 % of control; the T/C under setting [3] was 231 % of control; the T/C (dose: 75.0 mg/kg/injection, schedule: Q04DX003 (ip), vehicle: saline with Tween-80) was 218 % of control. Besides, the T/C reads like this: under setting [4], 259 % of control; under setting [5], 272 % of control.
As to `C1OC1CO[C@H]1CO[C@H]2[C@@H]1OC[C@H]2OCC1CO1` (some centres not stated), the T/C is, setting by setting: (dose: 264.0 mg/kg/injection, schedule: Q04DX003 (ip), vehicle: saline) 160 % of control and 168 % of control; under setting [6], 180 % of control.
As for `CCOc1ccc(-c2cc(C)n(C)[n+]2C)cc1`, the T/C under setting [1] was 100 % of control, the T/C under setting [2] was 98 % of control and the T/C under setting [7] is 92 % of control.
In the case of `COC1(OC)OC(c2ccccc2)=C(C#N)C(/C=C\c2ccccc2)C1(OC)OC` (configuration not stated), the T/C runs as follows: under setting [1], 100 % of control; under setting [2], 91 % of control; under setting [7], 90 % of control and 91 % of control; under setting [8], 106 % of control.
For the compound `ClCC[N+]12CC[N+](CCCl)(CC1)C2`, the T/C was 103 % of control under setting [1]; 118 % of control and 116 % of control under setting [2]; 108 % of control (dose: 25.0 mg/kg/injection, schedule: Q04DX003 (ip), vehicle: saline with Tween-80); 93 % of control and 108 % of control under setting [3]; 103 % of control (dose: 50.0 mg/kg/injection, schedule: Q04DX003 (ip), vehicle: saline); 150 % of control and 206 % of control and 168 % of control under setting [9]. In addition, the T/C under setting [4] is 171 % of control; the T/C (dose: 100.0 mg/kg/injection, schedule: Q04DX003 (ip), vehicle: saline) is 122 % of control; the T/C (dose: 200.0 mg/kg/injection, schedule: Q04DX003 (ip), vehicle: saline) was 165 % of control; the T/C (dose: 264.0 mg/kg/injection, schedule: Q04DX003 (ip), vehicle: saline with Tween-80) was 200 % of control; the T/C under setting [10] is 112 % of control; the T/C (dose: 400.0 mg/kg/injection, schedule: Q01DX009 (ip), vehicle: saline) was 178 % of control. The T/C by setting is: under setting [11], 96 % of control; under setting [6], 244 % of control; (dose: 600.0 mg/kg/injection, schedule: Q04DX003 (ip), vehicle: saline with Tween-80) 95 % of control.
For `CCCCN1C(=O)C2CC=C3C=CN4C(C3C2C1=O)C1C(=O)N(CCCC)C(=O)C1C41CC(=O)N(CCCC)C1=O` (configuration not stated), the T/C runs as follows: under setting [12], 104 % of control; under setting [13], 100 % of control; (dose: 100.0 mg/kg/injection, schedule: Q04DX003 (ip), vehicle: Klucel (hydroxypropylcellulose) (HPC)) 100 % of control; (dose: 200.0 mg/kg/injection, schedule: Q01DX009 (ip), vehicle: Klucel (hydroxypropylcellulose) (HPC)) 90 % of control; (dose: 200.0 mg/kg/injection, schedule: Q04DX003 (ip), vehicle: Klucel (hydroxypropylcellulose) (HPC)) 91 % of control.
As to `O=C(NN(Cn1c(=S)sc2ccccc21)Cn1c(=S)sc2ccccc21)c1ccncc1`, the T/C is 102 % of control (dose: 6.25 mg/kg/injection, schedule: Q01DX009 (ip), vehicle: Klucel (hydroxypropylcellulose) (HPC)); 120 % of control (dose: 12.5 mg/kg/injection, schedule: Q01DX009 (ip), vehicle: Klucel (hydroxypropylcellulose) (HPC)); 118 % of control under setting [14].
Consider `O=c1cc(N=Nc2ccc(O)cc2)[nH]c(=O)[nH]1`, for which the T/C was 100 % of control (dose: 25.0 mg/kg/injection, schedule: Q01DX009 (ip), vehicle: water); 106 % of control (dose: 50.0 mg/kg/injection, schedule: Q01DX009 (ip), vehicle: water); 104 % of control and 107 % of control (dose: 50.0 mg/kg/injection, schedule: Q04DX003 (ip), vehicle: water); 106 % of control (dose: 100.0 mg/kg/injection, schedule: Q01DX009 (ip), vehicle: water); 93 % of control and 98 % of control (dose: 100.0 mg/kg/injection, schedule: Q04DX003 (ip), vehicle: water); 114 % of control (dose: 200.0 mg/kg/injection, schedule: Q01DX009 (ip), vehicle: water). Also, the T/C (dose: 200.0 mg/kg/injection, schedule: Q04DX003 (ip), vehicle: water) was 98 % of control and 102 % of control and 117 % of control; the T/C (dose: 400.0 mg/kg/injection, schedule: Q01DX009 (ip), vehicle: water) was 100 % of control; the T/C (dose: 400.0 mg/kg/injection, schedule: Q04DX003 (ip), vehicle: water) is 109 % of control and 111 % of control and 117 % of control.
Take `COc1cc2ccc3c4cc5c(cc4c[n+](C)c3c2cc1OC)OCO5`: the T/C (dose: 20.0 mg/kg/injection, schedule: Q01DX009 (ip), vehicle: saline) was 122 % of control; the T/C (dose: 40.0 mg/kg/injection, schedule: Q01DX009 (ip), vehicle: saline) was 154 % of control and 159 % of control; the T/C (dose: 80.0 mg/kg/injection, schedule: Q01DX009 (ip), vehicle: saline) was 113 % of control; the T/C (dose: 120.0 mg/kg/injection, schedule: Q01DX009 (ip), vehicle: saline) is 86 % of control.
Turning to `Cc1cc(C)c(N)c(C)c1N`, the T/C is 118 % of control under setting [14]; 95 % of control under setting [12]; 105 % of control (dose: 100.0 mg/kg/injection, schedule: Q04DX003 (ip), vehicle: other); 100 % of control (dose: 200.0 mg/kg/injection, schedule: Q04DX003 (ip), vehicle: other); 105 % of control (dose: 400.0 mg/kg/injection, schedule: Q04DX003 (ip), vehicle: other).
Consider `O=C(/C=C/c1ccccc1)c1cccc(Br)c1`, for which the T/C runs as follows: under setting [9], 91 % of control; under setting [4], 109 % of control; under setting [8], 98 % of control; under setting [5], 104 % of control; under setting [10], 119 % of control; under setting [11], 104 % of control.
With `Cc1ccnc(=O)[nH]1`, the T/C (dose: 3.13 mg/kg/injection, schedule: Q01DX009 (ip), vehicle: saline) is 103 % of control; the T/C (dose: 6.25 mg/kg/injection, schedule: Q01DX009 (ip), vehicle: saline) was 115 % of control; the T/C (dose: 12.5 mg/kg/injection, schedule: Q01DX009 (ip), vehicle: saline) was 99 % of control; the T/C (dose: 25.0 mg/kg/injection, schedule: Q01DX009 (ip), vehicle: saline) was 105 % of control.
For the compound `Nc1ccc(C(=O)O)cc1S(=O)(=O)c1cc(C(=O)O)ccc1N`, the T/C runs as follows: under setting [12], 88 % of control; under setting [13], 91 % of control.
